Assay [1] addresses Cannabinoid receptor 1 (Homo sapiens, UniProt P21554). It is filed as cell membranes, Chem-1, Membrane. The note with it: chem-1.
The target in assay [2] is Beta-2 adrenergic receptor (Homo sapiens, UniProt P07550). Description: DRUGMATRIX: Adrenergic beta2 radioligand binding (ligand: [3H] CGP-12177). It is filed as cell membranes, CHO, Membrane. The note with it: cho; Not Active = under 50% inhibition at 10 µM.
A short description of assay [3]: DRUGMATRIX: Platelet-Derived Growth Factor (PDGF) radioligand binding (ligand: [125I] PDGF). Type of assay: cell-based. The conditions noted are these: nih3t3; Not Active = under 50% inhibition at 10 µM.
Assay [4] concerns the target T1, Alpha-1B adrenergic receptor (Rattus norvegicus, UniProt P15823).
T1 sequence (P15823 whole entry): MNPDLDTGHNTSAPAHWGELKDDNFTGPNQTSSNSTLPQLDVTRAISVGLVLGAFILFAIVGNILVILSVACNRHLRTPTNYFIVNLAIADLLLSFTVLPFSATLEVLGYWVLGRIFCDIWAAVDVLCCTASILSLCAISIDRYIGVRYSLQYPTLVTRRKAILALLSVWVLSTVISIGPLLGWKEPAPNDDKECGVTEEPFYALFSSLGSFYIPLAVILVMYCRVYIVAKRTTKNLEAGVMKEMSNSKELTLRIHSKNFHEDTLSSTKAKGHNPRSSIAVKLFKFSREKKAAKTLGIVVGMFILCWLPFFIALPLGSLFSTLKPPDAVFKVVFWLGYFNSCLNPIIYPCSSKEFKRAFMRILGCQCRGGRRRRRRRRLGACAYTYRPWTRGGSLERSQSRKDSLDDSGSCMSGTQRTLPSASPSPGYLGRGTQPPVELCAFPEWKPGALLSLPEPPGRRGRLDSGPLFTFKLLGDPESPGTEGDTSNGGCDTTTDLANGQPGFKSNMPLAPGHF
Put plainly: DRUGMATRIX: Alpha-1B adrenergic receptor radioligand binding (ligand: prazosin). The conditions noted are these: Not Active = under 50% inhibition at 10 µM. It is filed as cell membranes, Wistar, Liver, Membrane.

Assay [5] is described as follows: DRUGMATRIX: Glutamate, NMDA, Agonism radioligand binding (ligand: [3H] CGP-39653). Type of assay: cell membranes, Rattus norvegicus, Wistar, Cerebral cortex, Membrane. The note with it: Not Active = under 50% inhibition at 10 µM.
Assay [6] concerns the target T2, Thromboxane-A synthase (Homo sapiens, UniProt P24557).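 Also: enzyme inhibition assay with PGH2 supplied as substrate; in other assays of this panel Not Active means under 50% inhibition at 10 µM.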
T2 sequence (P24557 whole entry): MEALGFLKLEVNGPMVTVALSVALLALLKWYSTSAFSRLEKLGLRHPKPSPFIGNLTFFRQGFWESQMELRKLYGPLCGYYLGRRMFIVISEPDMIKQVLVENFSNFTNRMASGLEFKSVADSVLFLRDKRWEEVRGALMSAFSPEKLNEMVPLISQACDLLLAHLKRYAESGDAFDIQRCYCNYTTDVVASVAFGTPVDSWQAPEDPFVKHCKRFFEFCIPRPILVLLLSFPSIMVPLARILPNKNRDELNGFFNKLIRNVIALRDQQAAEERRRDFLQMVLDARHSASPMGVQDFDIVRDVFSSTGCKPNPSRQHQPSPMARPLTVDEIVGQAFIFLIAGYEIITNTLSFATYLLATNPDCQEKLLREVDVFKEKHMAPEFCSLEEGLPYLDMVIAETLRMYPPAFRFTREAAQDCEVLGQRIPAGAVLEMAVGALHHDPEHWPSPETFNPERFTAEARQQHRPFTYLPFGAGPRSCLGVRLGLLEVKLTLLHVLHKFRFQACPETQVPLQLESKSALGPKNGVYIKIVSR
Description: biochemical. It is filed as tissue-based, Platelet. The note with it: platelet.

Sequence of Cannabinoid receptor 1 (P21554 whole entry): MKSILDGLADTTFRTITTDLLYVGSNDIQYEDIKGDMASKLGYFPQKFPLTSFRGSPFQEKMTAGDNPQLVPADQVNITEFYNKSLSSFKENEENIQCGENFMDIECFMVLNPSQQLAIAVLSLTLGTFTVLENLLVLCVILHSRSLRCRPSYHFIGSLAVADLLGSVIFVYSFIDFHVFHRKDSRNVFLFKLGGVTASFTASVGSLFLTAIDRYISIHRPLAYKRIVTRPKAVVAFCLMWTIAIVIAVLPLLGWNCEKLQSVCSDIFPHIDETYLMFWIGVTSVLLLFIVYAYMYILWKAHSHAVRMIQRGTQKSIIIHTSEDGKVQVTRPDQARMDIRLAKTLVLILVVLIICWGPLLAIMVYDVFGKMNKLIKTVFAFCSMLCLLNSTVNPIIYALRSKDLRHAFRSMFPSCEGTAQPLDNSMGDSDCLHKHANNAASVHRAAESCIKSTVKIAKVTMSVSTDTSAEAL

The term IC50 denotes the midpoint of a concentration-inhibition curve. `C[n+]1ccc(-c2cc[n+](C)cc2)cc1.[Cl-].[Cl-]` [PARAQUAT DICHLORIDE]: the IC50 result in assay [1], in assay [2], in assay [3], in assay [4], in assay [5] and in assay [6] was “Not Active” each time. Also, the Ki result in assay [3] and in assay [5] was “Not Active” each time.

Turning to `CCn1cc(C(=O)O)c(=O)c2cnc(N3CCCC3)nc21` [PIROMIDIC ACID], the IC50 entry in assay [1], in assay [2], in assay [3], in assay [4], in assay [5] and in assay [6] was “Not Active” throughout. For the same molecule, the Ki result in assay [3] and in assay [5] was “Not Active” throughout.

On to `C[n+]1ccccc1/C=N/O.[Cl-]` [PRALIDOXIME CHLORIDE], for which the IC50 entry in assay [1], in assay [2], in assay [3], in assay [4], in assay [5] and in assay [6] was “Not Active” in each case. Moreover, the Ki result in assay [3] and in assay [5] was “Not Active” each time.

In the case of `C[C@]12C=CC(=O)C=C1CC[C@@H]1[C@@H]2[C@@H](O)C[C@@]2(C)[C@H]1CC[C@]2(O)C(=O)CO` [PREDNISOLONE], the IC50 result in assay [1], in assay [2], in assay [3], in assay [4], in assay [5] and in assay [6] was “Not Active” in each case. For the same molecule, the Ki result in assay [3] and in assay [5] was “Not Active” each time.

For `CC(=O)[C@H]1[C@H](C#N)C[C@H]2[C@@H]3CC=C4C[C@@H](O)CC[C@]4(C)[C@H]3CC[C@@]21C` [PREGNENOLONE CARBONITRILE], the IC50 entry in assay [1], in assay [2], in assay [3], in assay [4], in assay [5] and in assay [6] was “Not Active” throughout. Moreover, the Ki result in assay [3] and in assay [5] was “Not Active” in each case.

In the case of `CCCN(CCC)S(=O)(=O)c1ccc(C(=O)O)cc1` [PROBENECID], the IC50 entry in assay [1], in assay [2], in assay [3], in assay [4], in assay [5] and in assay [6] was “Not Active” throughout. Besides, the Ki entry in assay [3] and in assay [5] was “Not Active” each time.

In the case of `CCCOc1ccc(C(=O)OCCN(CC)CC)cc1N` [PROPARACAINE], the IC50 entry in assay [1], in assay [2], in assay [3], in assay [4], in assay [5] and in assay [6] was “Not Active” each time. The Ki entry in assay [3] and in assay [5] was “Not Active” throughout.

With `CC(C)c1cccc(C(C)C)c1O` [PROPOFOL], the IC50 result in assay [1], in assay [2], in assay [3], in assay [4], in assay [5] and in assay [6] was “Not Active” throughout. Also, the Ki entry in assay [3] and in assay [5] was “Not Active” throughout.

With `C[C@@H]1O[C@@H](O[C@@H]2C=C3CC[C@@H]4[C@H](CC[C@]5(C)[C@@H](c6ccc(=O)oc6)CC[C@]45O)[C@@]3(C)CC2)[C@H](O)[C@H](O)[C@H]1O` [PROSCILLARIDIN], the IC50 result in assay [1], in assay [2], in assay [3], in assay [4], in assay [5] and in assay [6] was “Not Active” in each case. The Ki entry in assay [3] and in assay [5] was “Not Active” in each case.

As for `Oc1cccc(O)c1O` [PYROGALLOL], the IC50 result in assay [1], in assay [2], in assay [3], in assay [4], in assay [5] and in assay [6] was “Not Active” throughout. Also, the Ki result in assay [3] and in assay [5] was “Not Active” each time.

Take AURANOFIN: the IC50 entry in assay [1], in assay [2], in assay [3], in assay [4], in assay [5] and in assay [6] was “Not Active” throughout. For the same molecule, the Ki result in assay [1], in assay [2], in assay [3], in assay [4], in assay [5] and in assay [6] was “Not Active” throughout.

Regarding GADOPENTETATE DIMEGLUMINE, the IC50 entry in assay [1], in assay [2], in assay [3], in assay [4], in assay [5] and in assay [6] was “Not Active” each time. For the same molecule, the Ki result in assay [1], in assay [2], in assay [3], in assay [4], in assay [5] and in assay [6] was “Not Active” each time.

Turning to GENTAMICIN, the IC50 result in assay [1], in assay [2], in assay [3], in assay [4], in assay [5] and in assay [6] was “Not Active” throughout. Moreover, the Ki result in assay [1], in assay [2], in assay [3], in assay [4], in assay [5] and in assay [6] was “Not Active” each time.

Regarding GRAMICIDIN, the IC50 entry in assay [1] is “Not Active”; in assay [2] it was “Not Active”; in assay [3], “Not Active”; in assay [4] it was “Not Active”; in assay [5] it was “Not Active”; in assay [6] (read-out: IC50), 774 nM. Besides, the Ki entry in assay [1], in assay [2], in assay [3], in assay [4] and in assay [5] was “Not Active” in each case.

Consider NYSTATIN, for which the IC50 result in assay [1], in assay [2], in assay [3], in assay [4], in assay [5] and in assay [6] was “Not Active” in each case. Further, the Ki result in assay [1], in assay [2], in assay [3], in assay [4], in assay [5] and in assay [6] was “Not Active” in each case.

Source of the values: ChEMBL document CHEMBL1909046, “DrugMatrix in vitro pharmacology data”.
